Data reported in ChEMBL document CHEMBL4257571, “Discovery of 5-(2-chloro-4'-(1H-imidazol-1-yl)-[1,1'-biphenyl]-4-yl)-1H-tetrazole as potent and orally efficacious S-nitrosoglutathione reductase (GSNOR) inhibitors for the potential treatment of COPD” (Bioorg Med Chem Lett, 2018).

Columns and labels:
[1] = target: T1, Alcohol dehydrogenase class-3 (Homo sapiens, UniProt P11766); experiment: Inhibition of human GSNOR assessed as reduction in NADH consumption after 3 mins by spectrophotometric analysis
Target sequence in this assay (P11766 whole entry): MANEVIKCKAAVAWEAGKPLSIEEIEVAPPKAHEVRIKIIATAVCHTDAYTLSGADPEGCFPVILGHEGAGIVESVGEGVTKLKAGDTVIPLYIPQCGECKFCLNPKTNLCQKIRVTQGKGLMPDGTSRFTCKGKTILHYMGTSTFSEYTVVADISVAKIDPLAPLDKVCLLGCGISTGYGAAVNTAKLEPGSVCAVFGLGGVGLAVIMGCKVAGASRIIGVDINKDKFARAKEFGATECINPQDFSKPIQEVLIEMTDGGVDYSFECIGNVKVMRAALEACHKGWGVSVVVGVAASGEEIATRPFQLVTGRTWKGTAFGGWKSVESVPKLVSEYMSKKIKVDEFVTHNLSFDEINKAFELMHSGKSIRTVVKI

[2] = target: T1, Alcohol dehydrogenase class-3; experiment: Inhibition of human GSNOR assessed as reduction in NADH consumption at 10 uM after 3 mins by spectrophotometric analysis relative to control
Target sequence in this assay (P11766 2-374 limits assumed): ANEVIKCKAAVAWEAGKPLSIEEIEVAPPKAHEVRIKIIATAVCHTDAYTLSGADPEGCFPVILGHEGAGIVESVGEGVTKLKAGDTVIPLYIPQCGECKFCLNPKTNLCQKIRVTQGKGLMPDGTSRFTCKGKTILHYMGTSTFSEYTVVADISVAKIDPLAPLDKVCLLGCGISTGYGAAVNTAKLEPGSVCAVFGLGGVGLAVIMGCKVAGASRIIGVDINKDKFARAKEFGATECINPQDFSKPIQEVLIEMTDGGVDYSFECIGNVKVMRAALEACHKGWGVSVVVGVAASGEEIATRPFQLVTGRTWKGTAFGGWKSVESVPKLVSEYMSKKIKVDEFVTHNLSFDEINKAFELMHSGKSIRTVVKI

[3] = target: CYP2C9 (Homo sapiens, UniProt P11712); experiment: Inhibition of CYP2C9 in human liver microsomes at 10 uM after 20 mins in presence of NADPH by LC/MS/MS analysis relative to control; type: ADME
CYP2C9, sequence (P11712 whole entry): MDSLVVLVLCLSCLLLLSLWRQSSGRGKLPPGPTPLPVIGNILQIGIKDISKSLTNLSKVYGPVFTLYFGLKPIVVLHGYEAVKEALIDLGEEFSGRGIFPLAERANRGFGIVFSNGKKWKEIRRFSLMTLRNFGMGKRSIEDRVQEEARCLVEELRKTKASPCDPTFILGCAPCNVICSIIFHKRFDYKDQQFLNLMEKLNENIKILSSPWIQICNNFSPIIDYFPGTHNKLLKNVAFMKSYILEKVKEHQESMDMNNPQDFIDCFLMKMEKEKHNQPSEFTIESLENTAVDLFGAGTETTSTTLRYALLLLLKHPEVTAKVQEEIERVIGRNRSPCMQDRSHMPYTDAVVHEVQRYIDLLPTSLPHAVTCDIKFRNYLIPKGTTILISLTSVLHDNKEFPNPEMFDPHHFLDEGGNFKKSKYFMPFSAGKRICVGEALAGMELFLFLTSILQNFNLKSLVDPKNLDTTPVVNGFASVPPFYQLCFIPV

[4] = target: CYP3A4 (Homo sapiens, UniProt P08684); experiment: Inhibition of CYP3A4 in human liver microsomes at 10 uM after 20 mins in presence of NADPH by LC/MS/MS analysis relative to control; type: ADME; conditions: liver microsomes
CYP3A4, sequence (P08684 whole entry): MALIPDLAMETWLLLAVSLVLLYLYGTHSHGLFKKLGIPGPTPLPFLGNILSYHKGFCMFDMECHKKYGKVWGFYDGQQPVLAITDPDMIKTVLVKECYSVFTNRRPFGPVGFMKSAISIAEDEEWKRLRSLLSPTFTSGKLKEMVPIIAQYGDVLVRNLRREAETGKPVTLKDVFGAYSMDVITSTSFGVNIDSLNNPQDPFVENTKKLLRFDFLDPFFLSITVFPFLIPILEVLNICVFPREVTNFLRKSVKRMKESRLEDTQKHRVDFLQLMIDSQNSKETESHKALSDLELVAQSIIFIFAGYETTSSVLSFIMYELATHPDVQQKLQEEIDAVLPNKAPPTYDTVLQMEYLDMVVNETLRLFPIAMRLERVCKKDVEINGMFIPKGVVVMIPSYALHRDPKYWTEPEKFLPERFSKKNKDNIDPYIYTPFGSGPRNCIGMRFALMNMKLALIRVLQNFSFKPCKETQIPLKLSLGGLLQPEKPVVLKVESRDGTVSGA

[5] = target: CYP2D6 (Homo sapiens, UniProt P10635); experiment: Inhibition of CYP2D6 in human liver microsomes at 10 uM after 20 mins in presence of NADPH by LC/MS/MS analysis relative to control; type: ADME; conditions: liver microsomes
CYP2D6, sequence (P10635 whole entry): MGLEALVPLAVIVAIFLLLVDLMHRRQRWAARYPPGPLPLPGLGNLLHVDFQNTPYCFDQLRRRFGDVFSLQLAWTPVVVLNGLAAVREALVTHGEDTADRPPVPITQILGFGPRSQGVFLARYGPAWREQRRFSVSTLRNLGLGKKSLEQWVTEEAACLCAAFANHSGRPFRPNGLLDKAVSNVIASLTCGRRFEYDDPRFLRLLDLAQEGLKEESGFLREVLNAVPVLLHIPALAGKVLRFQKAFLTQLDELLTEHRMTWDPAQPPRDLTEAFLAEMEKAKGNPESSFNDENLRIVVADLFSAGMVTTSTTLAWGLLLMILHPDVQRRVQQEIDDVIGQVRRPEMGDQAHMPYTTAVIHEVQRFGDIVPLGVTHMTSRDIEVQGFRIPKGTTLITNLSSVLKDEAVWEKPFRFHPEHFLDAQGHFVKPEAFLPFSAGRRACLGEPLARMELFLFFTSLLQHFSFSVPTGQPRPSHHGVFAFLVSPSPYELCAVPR

[6] = Metabolic stability of mouse liver microsomes assessed as parent compound remaining at 0.1 uM after 60 mins in presence of NADPH by LC/MS/MS analysis; type: ADME, microsome; conditions: read-out: Stability
[7] = Metabolic stability of rat liver microsomes assessed as parent compound remaining at 0.1 uM after 60 mins in presence of NADPH by LC/MS/MS analysis; type: ADME, microsome; conditions: read-out: Stability
[8] = Metabolic stability of human liver microsomes assessed as parent compound remaining at 0.1 uM after 60 mins in presence of NADPH by LC/MS/MS analysis; type: ADME, microsome; conditions: read-out: Stability
[9] = target: T2, CYP1A2 (Homo sapiens, UniProt P05177); experiment: Inhibition of CYP1A2 in human liver microsomes at 10 uM after 20 mins in presence of NADPH by LC/MS/MS analysis relative to control; type: ADME; conditions: liver microsomes
T2 sequence (P05177 whole entry): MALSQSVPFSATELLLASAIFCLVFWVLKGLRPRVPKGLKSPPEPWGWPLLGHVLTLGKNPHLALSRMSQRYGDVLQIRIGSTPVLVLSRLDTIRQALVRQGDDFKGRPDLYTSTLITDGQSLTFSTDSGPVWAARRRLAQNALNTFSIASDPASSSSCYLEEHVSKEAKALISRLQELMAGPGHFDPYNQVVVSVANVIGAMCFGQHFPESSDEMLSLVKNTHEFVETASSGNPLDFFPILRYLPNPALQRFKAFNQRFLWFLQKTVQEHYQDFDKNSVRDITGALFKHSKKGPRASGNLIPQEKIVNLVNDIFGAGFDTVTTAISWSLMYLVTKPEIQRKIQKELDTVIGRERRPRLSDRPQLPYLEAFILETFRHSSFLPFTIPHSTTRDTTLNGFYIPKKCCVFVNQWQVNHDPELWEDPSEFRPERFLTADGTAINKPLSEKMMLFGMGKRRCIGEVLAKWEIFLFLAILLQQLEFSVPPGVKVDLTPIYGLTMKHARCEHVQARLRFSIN

[10] = target: CYP2C19 (Homo sapiens, UniProt P33261); experiment: Inhibition of CYP2C19 in human liver microsomes at 10 uM after 40 mins in presence of NADPH by LC/MS/MS analysis relative to control; type: ADME
CYP2C19, sequence (P33261 whole entry): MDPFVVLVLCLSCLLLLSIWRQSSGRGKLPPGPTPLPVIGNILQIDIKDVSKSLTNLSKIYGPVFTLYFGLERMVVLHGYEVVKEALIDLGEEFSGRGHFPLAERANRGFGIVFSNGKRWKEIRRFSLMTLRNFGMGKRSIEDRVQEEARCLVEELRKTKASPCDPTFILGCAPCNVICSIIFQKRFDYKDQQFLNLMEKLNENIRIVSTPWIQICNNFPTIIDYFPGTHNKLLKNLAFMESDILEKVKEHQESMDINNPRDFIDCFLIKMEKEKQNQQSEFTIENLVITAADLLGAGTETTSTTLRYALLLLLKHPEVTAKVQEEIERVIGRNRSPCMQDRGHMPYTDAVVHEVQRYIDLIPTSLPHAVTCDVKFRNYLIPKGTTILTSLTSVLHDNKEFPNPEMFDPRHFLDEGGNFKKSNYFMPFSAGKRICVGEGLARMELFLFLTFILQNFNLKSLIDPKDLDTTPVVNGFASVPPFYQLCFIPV

**Q.** With `Cc1cc(-c2nnn[nH]2)ccc1-c1ccc(-n2ccnc2)cc1` as the molecule, how does the IC50 [1] read?
**A.** 26 nM

**Q.** For `NC(=O)c1ccc(-c2ccc(-n3ccnc3)cc2)cc1`, which inhibition [2] is on record?
**A.** 60%

**Q.** With `N#Cc1ccc(-c2ccc(-n3ccnc3)cc2)cc1` as the molecule, how does the inhibition [2] read?
**A.** 10%

**Q.** Which IC50 [1] does the source give for `Cc1nccn1-c1ccc(-c2ccc(-c3nnn[nH]3)cc2Cl)cc1` here?
**A.** 37 nM

**Q.** Which inhibition at 20 min, 10 µM [3] does the source give for `Cc1cc(-n2ccnc2)ccc1-c1ccc(-c2nnn[nH]2)cc1` here?
**A.** 86%

**Q.** And the inhibition at 20 min, 10 µM [4]?
**A.** 26%

**Q.** And the IC50 [1]?
**A.** 14 nM

**Q.** What about the inhibition at 20 min, 10 µM [5] of the same molecule?
**A.** 44%

**Q.** What about the remaining at 1 h, 0.1 µM [6] of the same molecule?
**A.** 44%

**Q.** What about the remaining at 1 h, 0.1 µM [7] of the same molecule?
**A.** 68%

**Q.** And the remaining at 1 h, 0.1 µM [8]?
**A.** 99%

**Q.** What about the inhibition at 20 min, 10 µM [9] of the same molecule?
**A.** 39%

**Q.** What about the inhibition at 40 min, 10 µM [10] of the same molecule?
**A.** 84%

**Q.** Which IC50 [1] does the source give for `Cc1cc(C(=O)O)ccc1-c1ccc(-n2ccnc2)cc1` here?
**A.** 29 nM

**Q.** Which inhibition at 20 min, 10 µM [3] does the source give for `Cc1cc(-n2ccnc2)ccc1-c1ccc(C(=O)O)cc1` here?
**A.** 37%

**Q.** And the inhibition at 20 min, 10 µM [4]?
**A.** 4%

**Q.** What about the IC50 [1] of the same molecule?
**A.** 20 nM

**Q.** And the inhibition at 20 min, 10 µM [5]?
**A.** 14%

**Q.** And the remaining at 1 h, 0.1 µM [6]?
**A.** 48%

**Q.** What about the remaining at 1 h, 0.1 µM [7] of the same molecule?
**A.** 64%

**Q.** And the remaining at 1 h, 0.1 µM [8]?
**A.** 100%

**Q.** What about the inhibition at 20 min, 10 µM [9] of the same molecule?
**A.** 22%

**Q.** And the inhibition at 40 min, 10 µM [10]?
**A.** 18%

**Q.** With `O=C(O)c1ccc(-c2ccc(-n3ccnc3)cc2Cl)cc1` as the molecule, how does the IC50 [1] read?
**A.** 59 nM

**Q.** With `Cc1cc(-n2ccnc2)cnc1-c1ccc(C(=O)O)cc1F` as the molecule, how does the IC50 [1] read?
**A.** 36 nM

**Q.** Which inhibition [2] does the source give for `N#Cc1ccc(-c2ccc(-c3nn[nH]n3)cc2)cc1` here?
**A.** 27%

**Q.** With `O=C(O)c1ccc(-c2ccc(O)cc2)cc1` as the molecule, how does the inhibition [2] read?
**A.** 25%

**Q.** What does the source list for `Cc1cc(-n2ccnc2)cnc1-c1ccc(-c2nnn[nH]2)cc1`?
**A.** inhibition at 20 min, 10 µM [3]: 61%; inhibition at 20 min, 10 µM [4]: 17%; IC50 [1]: 17 nM; inhibition at 20 min, 10 µM [5]: 9%; remaining at 1 h, 0.1 µM [6]: 17%; remaining at 1 h, 0.1 µM [7]: 50%; remaining at 1 h, 0.1 µM [8]: 94%; inhibition at 20 min, 10 µM [9]: 1%; inhibition at 40 min, 10 µM [10]: 69%

**Q.** With `CCc1cc(-n2ccnc2)cnc1-c1ccc(-c2nnn[nH]2)cc1` as the molecule, how does the IC50 [1] read?
**A.** 66 nM

**Q.** Which inhibition at 20 min, 10 µM [3] does the source give for `CCc1cc(-n2ccnc2)ccc1-c1ccc(-c2nnn[nH]2)cc1` here?
**A.** 94%

**Q.** And the inhibition at 20 min, 10 µM [4]?
**A.** 33%

**Q.** And the IC50 [1]?
**A.** 6.1 nM

**Q.** And the inhibition at 20 min, 10 µM [5]?
**A.** 37%

**Q.** And the remaining at 1 h, 0.1 µM [6]?
**A.** 58%

**Q.** And the remaining at 1 h, 0.1 µM [7]?
**A.** 71%

**Q.** And the remaining at 1 h, 0.1 µM [8]?
**A.** 100%

**Q.** And the inhibition at 20 min, 10 µM [9]?
**A.** 56%

**Q.** What about the inhibition at 40 min, 10 µM [10] of the same molecule?
**A.** 86%

**Q.** With `Clc1cc(-n2ccnc2)ccc1-c1ccc(-c2nnn[nH]2)cc1` as the molecule, how does the IC50 [1] read?
**A.** 22 nM

**Q.** For `c1cn(-c2cnc(-c3ccc(-c4nnn[nH]4)cc3)c(C3CCCCC3)c2)cn1`, which IC50 [1] is on record?
**A.** 74 nM

**Q.** For `O=C(O)c1ccc(-c2ccc(-n3ccnc3)cc2)cc1`, which IC50 [1] is on record?
**A.** 62 nM

**Q.** With `Cc1nccn1-c1ccc(-c2ccc(-c3nnn[nH]3)cc2)cc1` as the molecule, how does the inhibition at 20 min, 10 µM [3] read?
**A.** 18%

**Q.** And the inhibition at 20 min, 10 µM [4]?
**A.** -2%

**Q.** What about the IC50 [1] of the same molecule?
**A.** 97 nM

**Q.** And the inhibition at 20 min, 10 µM [5]?
**A.** 37%

**Q.** What about the remaining at 1 h, 0.1 µM [6] of the same molecule?
**A.** 92%

**Q.** And the remaining at 1 h, 0.1 µM [7]?
**A.** 82%

**Q.** And the remaining at 1 h, 0.1 µM [8]?
**A.** 63%

**Q.** What about the inhibition at 20 min, 10 µM [9] of the same molecule?
**A.** 10%

**Q.** What about the inhibition at 40 min, 10 µM [10] of the same molecule?
**A.** 33%

**Q.** Which IC50 [1] does the source give for `Cc1cc(-n2ccnc2)cnc1-c1ccc(C(=O)O)cc1` here?
**A.** 41 nM

**Q.** With `CCc1cc(-n2ccnc2)cnc1-c1ccc(-c2nnn[nH]2)cc1F` as the molecule, how does the IC50 [1] read?
**A.** 62 nM

**Q.** What does the source list for `Clc1cc(-n2ccnc2)cnc1-c1ccc(-c2nnn[nH]2)cc1`?
**A.** inhibition at 20 min, 10 µM [3]: 64%; inhibition at 20 min, 10 µM [4]: 1%; IC50 [1]: 20 nM; inhibition at 20 min, 10 µM [5]: 11%; remaining at 1 h, 0.1 µM [6]: 19%; remaining at 1 h, 0.1 µM [7]: 39%; remaining at 1 h, 0.1 µM [8]: 83%; inhibition at 20 min, 10 µM [9]: 20%; inhibition at 40 min, 10 µM [10]: 42%
